Data reported in ChEMBL document CHEMBL3421531, “Synthesis, and structure-activity relationship for C(4) and/or C(5) thienyl substituted pyrimidines, as a new family of antimycobacterial compounds” (Eur J Med Chem, 2015).
≈ marks a conversion by molar mass, not a printed value.

Test system: Mycobacterium tuberculosis
Assay: Antimycobacterial activity against rifampin,isoniazid-resistant Mycobacterium tuberculosis expressing rpoB/katG mutant after 10 days by microbroth dilution method
Format: functional

Row | Compound | MIC [µM]
1 | c1ccc(-c2ccc(-c3cncnc3)s2)cc1 | 26.23 (≈ 6.25 µg/mL)
2 | c1csc(-c2ccc(-c3ncncc3-c3cc4ccccc4s3)s2)c1 | 33.2 (≈ 12.5 µg/mL)
3 | c1ccc2sc(-c3cncnc3)cc2c1 | 58.89 (≈ 12.5 µg/mL)
4 | c1ncc(-c2ccsc2)cn1 | 77.06 (≈ 12.5 µg/mL)
5 | c1ccc(-c2ccc(-c3ncncc3-c3cccs3)s2)cc1 | 39.01 (≈ 12.5 µg/mL)
6 | c1csc(-c2ccc(-c3ncncc3-c3ccsc3)s2)c1 | 19.14 (≈ 6.25 µg/mL)
7 | Brc1ccc(-c2ncncc2-c2csc3ccccc23)s1 | 8.3 (≈ 3.1 µg/mL)
8 | Brc1cncnc1 | 78.62 (≈ 12.5 µg/mL)
9 | c1ccc(-c2ccc(-c3ncncc3-c3csc4ccccc34)s2)cc1 | 0.4 (≈ 0.148 µg/mL)
10 | Brc1ccc(-c2ncncc2Br)s1 | 9.69 (≈ 3.1 µg/mL)
11 | Brc1ccc(-c2ncncc2-c2ccsc2)s1 | 19.34 (≈ 6.25 µg/mL)
12 | Brc1ccc(-c2ncncc2-c2cccs2)s1 | 38.67 (≈ 12.5 µg/mL)
13 | c1csc(-c2ncncc2-c2cc3ccccc3s2)c1 | 21.23 (≈ 6.25 µg/mL)
14 | c1csc(-c2ncncc2-c2ccsc2)c1 | 25.58 (≈ 6.25 µg/mL)
15 | c1csc(-c2ccc(-c3cncnc3)s2)c1 | 25.58 (≈ 6.25 µg/mL)
16 | c1ccc(-c2ccc(-c3ncncc3-c3cc4ccccc4s3)s2)cc1 | 8.37 (≈ 3.1 µg/mL)
17 | c1ccc(-c2ccc(-c3ncncc3-c3ccsc3)s2)cc1 | 19.5 (≈ 6.25 µg/mL)
18 | Brc1ccc(-c2cncnc2)s1 | 51.84 (≈ 12.5 µg/mL)
19 | c1csc(-c2ncncc2-c2csc3ccccc23)c1 | 42.46 (≈ 12.5 µg/mL)
20 | c1ccc2c(-c3cncnc3)csc2c1 | 7.07 (≈ 1.5 µg/mL)
21 | c1csc(-c2cncnc2)c1 | 38.53 (≈ 6.25 µg/mL)
22 | c1csc(-c2ccc(-c3ncncc3-c3cccs3)s2)c1 | 2.14 (≈ 0.699 µg/mL)
23 | c1csc(-c2ccc(-c3ncncc3-c3csc4ccccc34)s2)c1 | 0.98 (≈ 0.369 µg/mL)
24 | c1csc(-c2cncnc2-c2cccs2)c1 | 12.69 (≈ 3.1 µg/mL)
25 | c1csc(-c2ccc(-c3ccncn3)s2)c1 | 51.16 (≈ 12.5 µg/mL)
26 | Brc1ccc(-c2ncncc2-c2cc3ccccc3s2)s1 | 33.49 (≈ 12.5 µg/mL)
